Experimental data reported in ChEMBL document CHEMBL1201862, “PubChem BioAssay data set” (2004).
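Tested at 5 concentrations; 48 h exposure; 96-well plates; endpoints linearly interpolated, else capped at highest concentration. GI50 is the concentration that inhibits growth by half.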 Calls of active or inactive are those of the source. Cut-off read from the data, not from the text of the source: active = GI50 up to about 1.1 µM and inactive = higher.

How the values were obtained:
Assay in all cases: inhibition of tumour cell growth, NCI panel, 48 h
786-0 = tested on: 786-0
A498 = tested on: A498
A549 = tested on: A549
ACHN = tested on: ACHN
CAKI-1 = tested on: CAKI-1
CCRF-CEM = tested on: CCRF-CEM
COLO 205 = tested on: COLO 205
DLD-1 = tested on: DLD-1
DMS-114 = tested on: DMS-114
DMS-273 = tested on: DMS-273
EKVX = tested on: EKVX
HCC 2998 = tested on: HCC 2998
HCT-116 = tested on: HCT-116
HCT-15 = tested on: HCT-15
HL-60 = tested on: HL-60
HOP-18 = tested on: HOP-18
HOP-62 = tested on: HOP-62
HOP-92 = tested on: HOP-92
HT-29 = tested on: HT-29
IGROV-1 = tested on: IGROV-1
K562 = tested on: K562
KM-20L2 = tested on: KM-20L2
KM12 = tested on: KM12
LXFL 529 = tested on: LXFL 529
M14 = tested on: M14
M19-MEL = tested on: M19-MEL
MOLT-4 = tested on: MOLT-4
Malme-3M = tested on: Malme-3M
NCI-H226 = tested on: NCI-H226
NCI-H23 = tested on: NCI-H23
NCI-H460 = tested on: NCI-H460
NCI-H522 = tested on: NCI-H522
OVCAR-3 = tested on: OVCAR-3
OVCAR-4 = tested on: OVCAR-4
OVCAR-5 = tested on: OVCAR-5
OVCAR-8 = tested on: OVCAR-8
RPMI-8226 = tested on: RPMI-8226
RXF 631 = tested on: RXF 631
SF-268 = tested on: SF-268
SF-295 = tested on: SF-295
SF-539 = tested on: SF-539
SK-MEL-28 = tested on: SK-MEL-28
SK-MEL-2 = tested on: SK-MEL-2
SK-MEL-5 = tested on: SK-MEL-5
SK-OV-3 = tested on: SK-OV-3
SN12C = tested on: SN12C
SNB-19 = tested on: SNB-19
SNB-75 = tested on: SNB-75
SNB-78 = tested on: SNB-78
SR = tested on: SR
SW-620 = tested on: SW-620
TK-10 = tested on: TK-10
U-251 = tested on: U-251
UACC-257 = tested on: UACC-257
UACC-62 = tested on: UACC-62
UO-31 = tested on: UO-31
XF498 = tested on: XF498
LOX IMVI = tested on: LOX IMVI
RXF 393 = tested on: RXF 393
BT-549 = tested on: BT-549
DU-145 = tested on: DU-145
Hs-578T = tested on: Hs-578T
MCF7 = tested on: MCF7
MDA-MB-231 = tested on: MDA-MB-231
MDA-MB-435 = tested on: MDA-MB-435
MDA-N = tested on: MDA-N
NCI/ADR-RES = tested on: NCI/ADR-RES
PC-3 = tested on: PC-3

Measured: GI50

Cc1cccc(C)c1NC(=O)/C(=N/NC(N)=S)C(C)C(=O)c1ccc(Cl)cc1 (stereo not drawn)
inactive: 786-0 > 100 µM | A498 > 100 µM | A549 > 100 µM | ACHN > 100 µM | CAKI-1 > 100 µM | CCRF-CEM > 100 µM | COLO 205 > 100 µM | DLD-1 > 100 µM | DMS-114 > 100 µM | DMS-273 > 100 µM | EKVX > 100 µM | HCC 2998 > 100 µM | HCT-116 > 100 µM | HL-60 93.8 µM | HOP-18 > 100 µM | HOP-62 > 100 µM | HOP-92 > 100 µM | HT-29 75.9 µM | IGROV-1 > 100 µM | K562 > 100 µM | KM-20L2 > 100 µM | KM12 > 100 µM | LXFL 529 > 100 µM | M14 > 100 µM | M19-MEL > 100 µM | MOLT-4 > 100 µM | Malme-3M > 100 µM | NCI-H226 > 100 µM | NCI-H23 > 100 µM | NCI-H460 > 100 µM | NCI-H522 89.9 µM | OVCAR-3 > 100 µM | OVCAR-4 78.5 µM | OVCAR-5 > 100 µM | OVCAR-8 > 100 µM | RPMI-8226 > 100 µM | RXF 631 > 100 µM | SF-268 > 100 µM | SF-295 > 100 µM | SF-539 > 100 µM | SK-MEL-28 > 100 µM | SK-MEL-2 > 100 µM | SK-MEL-5 > 100 µM | SK-OV-3 > 100 µM | SN12C > 100 µM | SNB-19 > 100 µM | SNB-75 > 100 µM | SNB-78 > 100 µM | SR > 100 µM | SW-620 > 100 µM | TK-10 > 100 µM | U-251 > 100 µM | UACC-257 > 100 µM | UACC-62 > 100 µM | UO-31 > 100 µM | XF498 > 100 µM
> 100 µM: HCT-15

CC/C(C)=C1\CCC(CN(C)C)C1=O (stereo not drawn)
15.8 µM: HCT-15
inactive: 786-0 15.8 µM | A498 20.6 µM | A549 22.9 µM | ACHN 18.9 µM | CAKI-1 1.91 µM | CCRF-CEM 15.9 µM | DLD-1 16.4 µM | DMS-114 23.4 µM | DMS-273 18.9 µM | EKVX 21.9 µM | HCC 2998 25.2 µM | HCT-116 17.8 µM | HL-60 18.4 µM | HOP-18 18.2 µM | HOP-62 42.2 µM | HOP-92 23.2 µM | HT-29 23.1 µM | IGROV-1 20 µM | K562 20 µM | KM-20L2 21.7 µM | KM12 15 µM | LOX IMVI 20.6 µM | LXFL 529 16.3 µM | M14 19.5 µM | M19-MEL 18.1 µM | MOLT-4 26.7 µM | Malme-3M 22 µM | NCI-H226 > 100 µM | NCI-H23 21.2 µM | NCI-H460 19.3 µM | OVCAR-3 19.1 µM | OVCAR-4 17.6 µM | OVCAR-5 19.1 µM | OVCAR-8 27.6 µM | RPMI-8226 2.82 µM | RXF 393 20.7 µM | RXF 631 19.9 µM | SF-268 25.4 µM | SF-295 > 100 µM | SF-539 18.7 µM | SK-MEL-28 22.9 µM | SK-MEL-2 17.6 µM | SK-MEL-5 33.3 µM | SN12C 20.1 µM | SNB-19 > 100 µM | SNB-75 16.3 µM | SNB-78 24.8 µM | SR 19.3 µM | SW-620 22.9 µM | TK-10 17.3 µM | UACC-257 17.3 µM | UACC-62 33.3 µM | UO-31 20.2 µM | XF498 19.7 µM

COc1ccc(NC(=O)CC/C(CC(=O)c2ccco2)=N/NC(N)=S)cc1
inactive: 786-0 > 100 µM | A498 > 100 µM | A549 > 100 µM | ACHN > 100 µM | CAKI-1 > 100 µM | CCRF-CEM > 100 µM | COLO 205 > 100 µM | DLD-1 > 100 µM | DMS-114 > 100 µM | DMS-273 > 100 µM | EKVX > 100 µM | HCC 2998 > 100 µM | HCT-116 > 100 µM | HL-60 > 100 µM | HOP-18 > 100 µM | HOP-62 > 100 µM | HOP-92 > 100 µM | HT-29 > 100 µM | IGROV-1 > 100 µM | K562 > 100 µM | KM-20L2 > 100 µM | KM12 > 100 µM | LOX IMVI > 100 µM | LXFL 529 > 100 µM | M14 > 100 µM | M19-MEL > 100 µM | MOLT-4 > 100 µM | Malme-3M > 100 µM | NCI-H226 > 100 µM | NCI-H23 > 100 µM | NCI-H460 > 100 µM | NCI-H522 > 100 µM | OVCAR-3 > 100 µM | OVCAR-4 > 100 µM | OVCAR-5 > 100 µM | OVCAR-8 > 100 µM | RPMI-8226 > 100 µM | RXF 631 > 100 µM | SF-268 > 100 µM | SF-295 > 100 µM | SF-539 > 100 µM | SK-MEL-2 > 100 µM | SK-OV-3 > 100 µM | SN12C > 100 µM | SNB-19 > 100 µM | SNB-78 > 100 µM | SW-620 > 100 µM | TK-10 > 100 µM | U-251 > 100 µM | UACC-257 > 100 µM | UACC-62 > 100 µM | UO-31 > 100 µM | XF498 > 100 µM
> 100 µM: HCT-15

O=C1/C(=C/c2ccc(Cl)c(Cl)c2)CN(C(=O)CCN2CCOCC2)C/C1=C\c1ccc(Cl)c(Cl)c1
active: BT-549 0.0169 µM | DLD-1 0.182 µM | DMS-114 0.746 µM | DU-145 0.0373 µM | LOX IMVI 0.00217 µM | MCF7 0.0184 µM | MDA-MB-231 0.00286 µM | MDA-MB-435 0.0121 µM | MDA-N 0.0145 µM | MOLT-4 0.00283 µM | NCI/ADR-RES 0.0043 µM | OVCAR-3 0.00454 µM | OVCAR-4 0.00395 µM | PC-3 0.00331 µM
inactive: CAKI-1 1.51 µM | DMS-273 1.12 µM | EKVX 2.4 µM | HCC 2998 2.09 µM | HOP-18 2.55 µM | Hs-578T 7.76 µM | KM-20L2 1.38 µM | LXFL 529 1.56 µM | M19-MEL 1.64 µM | NCI-H226 2.04 µM | RXF 631 2.94 µM | SNB-78 2.66 µM | UACC-62 1.71 µM
